According to PubChem BioAssay AID256 (DTP/NCI, 2004):
Inconclusive results and toxic doses are left out. How the source made its calls: active means survival T/C of 150% or more; inactive means T/C below 125% in these data.

System: CD2F1 mice, L1210 leukemia ip, survival T/C
Assay: NCI In Vivo Anticancer Drug Screen. Data for tumor model L1210 Leukemia (intraperitoneal) in CD2F1 (CDF1) mice
Settings: higher = longer survival
In short: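 Ratio T/C, where T is the treated-group value and C the vehicle-dosed control value, from mice implanted with a transplantable tumor.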

[1] = endpoint: mean survival time, dose: 100.0 mg/kg/injection, schedule: Q04DX003 (ip), vehicle: saline with Tween-80
[2] = endpoint: mean survival time, dose: 200.0 mg/kg/injection, schedule: Q04DX003 (ip), vehicle: saline with Tween-80
[3] = endpoint: mean survival time, dose: 400.0 mg/kg/injection, schedule: Q04DX003 (ip), vehicle: saline with Tween-80
[4] = endpoint: mean survival time, dose: 100.0 mg/kg/injection, schedule: Q01DX009 (ip), vehicle: saline with Tween-80
[5] = endpoint: mean survival time, dose: 200.0 mg/kg/injection, schedule: Q01DX009 (ip), vehicle: saline with Tween-80
[6] = endpoint: mean survival time, dose: 400.0 mg/kg/injection, schedule: Q01DX009 (ip), vehicle: saline with Tween-80

Measured: T/C

ClC1C(Cl)C(Cl)C(Cl)C(Cl)C1Cl (stereo not drawn)
inactive: endpoint: mean survival time, dose: 10.0 mg/kg/injection, schedule: Q01DX009 (ip), vehicle: saline with Tween-80 104 % of control | endpoint: mean survival time, dose: 20.0 mg/kg/injection, schedule: Q01DX009 (ip), vehicle: saline with Tween-80 105 % of control | endpoint: mean survival time, dose: 40.0 mg/kg/injection, schedule: Q01DX009 (ip), vehicle: saline with Tween-80 100 % of control | endpoint: mean survival time, dose: 100.0 mg/kg/injection, schedule: Q01DX009 (ip), vehicle: other 102 % of control | endpoint: mean survival time, dose: 100.0 mg/kg/injection, schedule: Q04DX003 (ip), vehicle: Klucel (hydroxypropylcellulose) (HPC) 102 % of control | endpoint: mean survival time, dose: 200.0 mg/kg/injection, schedule: Q01DX009 (ip), vehicle: other 96 % of control | endpoint: mean survival time, dose: 200.0 mg/kg/injection, schedule: Q04DX003 (ip), vehicle: Klucel (hydroxypropylcellulose) (HPC) 107 % of control | endpoint: mean survival time, dose: 400.0 mg/kg/injection, schedule: Q04DX003 (ip), vehicle: Klucel (hydroxypropylcellulose) (HPC) 102 % of control

c1ccc(C[n+]2ccccc2)cc1
inactive: endpoint: mean survival time, dose: 12.5 mg/kg/injection, schedule: Q01DX009 (ip), vehicle: saline 100 % of control | endpoint: mean survival time, dose: 25.0 mg/kg/injection, schedule: Q01DX009 (ip), vehicle: saline 100 % of control | endpoint: mean survival time, dose: 50.0 mg/kg/injection, schedule: Q01DX009 (ip), vehicle: saline with Tween-80 100 % of control | endpoint: mean survival time, dose: 50.0 mg/kg/injection, schedule: Q01DX009 (ip), vehicle: saline 106 % of control

O=[N+]([O-])c1ccc(COc2ccc(Cl)cc2)cc1
inactive: [1] 92 % of control | [2] 103 % of control | [3] 94 % of control

Cc1cc(C(=O)c2ccccn2)c2cc(Cl)cc(Cl)c2n1
inactive: [4] 93 % of control | [1] 88 % of control | [5] 91 % of control | [2] 94 % of control | [6] 87 % of control | [3] 94 % of control

CCOc1cc(C)cc(C(=O)O)c1
inactive: endpoint: mean survival time, dose: 100.0 mg/kg/injection, schedule: Q04DX002 (ip), vehicle: saline with Tween-80 97 % of control | endpoint: mean survival time, dose: 200.0 mg/kg/injection, schedule: Q04DX002 (ip), vehicle: saline with Tween-80 90 % of control | endpoint: mean survival time, dose: 400.0 mg/kg/injection, schedule: Q04DX002 (ip), vehicle: saline with Tween-80 97 % of control

NC(=O)C1C=CN(Cc2ccccc2)C=C1
inactive: endpoint: median survival time, dose: 30.0 mg/kg/injection, schedule: Q01DX005 (ip), vehicle: saline with Tween-80 100 % of control | endpoint: median survival time, dose: 60.0 mg/kg/injection, schedule: Q01DX005 (ip), vehicle: saline with Tween-80 107 % of control | endpoint: median survival time, dose: 120.0 mg/kg/injection, schedule: Q01DX005 (ip), vehicle: saline with Tween-80 111 % of control

COc1nc(N)nc2c1nnn2C1OC(CO)C(O)C1O (stereo not drawn)
inactive: endpoint: mean survival time, dose: 50.0 mg/kg/injection, schedule: Q01DX009 (ip), vehicle: Klucel (hydroxypropylcellulose) (HPC) 117 % of control

Nn1cnc2ccccc2c1=O
inactive: endpoint: mean survival time, dose: 100.0 mg/kg/injection, schedule: Q01DX001 (ip), vehicle: saline 101 % of control | endpoint: mean survival time, dose: 200.0 mg/kg/injection, schedule: Q01DX001 (ip), vehicle: saline 102 % of control | endpoint: mean survival time, dose: 400.0 mg/kg/injection, schedule: Q01DX001 (ip), vehicle: saline 102 % of control

Cc1ccc(S(=O)(=O)OCC(OS(=O)(=O)c2ccc(C)cc2)C2OC3OC(C)(C)OC3C2OS(=O)(=O)c2ccc(C)cc2)cc1 (stereo not drawn)
inactive: [4] 103 % of control | [1] 96 % of control | [5] 103 % of control | [2] 87 % of control | [6] 89 % of control | [3] 90 % of control

CCCCn1c2ccccc2c2ccccc21
inactive: [1] 94 % of control | [3] 94 % of control

S=c1ssc(-c2ccccc2)c1-c1ccccc1
inactive: [4] 97 % of control | [1] 87 % of control | [5] 100 % of control | [2] 92 % of control | [6] 106 % of control | [3] 93 % of control

C#CCP(=O)(OCC)OCC
inactive: endpoint: mean survival time, dose: 100.0 mg/kg/injection, schedule: Q01DX009 (ip), vehicle: saline 95 % of control | endpoint: mean survival time, dose: 200.0 mg/kg/injection, schedule: Q01DX009 (ip), vehicle: saline 95 % of control | endpoint: mean survival time, dose: 400.0 mg/kg/injection, schedule: Q01DX009 (ip), vehicle: saline 94 % of control

NC(=O)C(NCCn1cnc2c(N)ncnc21)C(N)=O
inactive: endpoint: mean survival time, dose: 1.25 mg/kg/injection, schedule: Q01DX005 (ip), vehicle: water 92 % of control | endpoint: mean survival time, dose: 2.5 mg/kg/injection, schedule: Q01DX005 (ip), vehicle: water 92 % of control | endpoint: mean survival time, dose: 5.0 mg/kg/injection, schedule: Q01DX005 (ip), vehicle: water 92 % of control | endpoint: mean survival time, dose: 10.0 mg/kg/injection, schedule: Q01DX005 (ip), vehicle: water 95 % of control | endpoint: mean survival time, dose: 20.0 mg/kg/injection, schedule: Q01DX005 (ip), vehicle: water 95 % of control

CCC1(c2cccc([N+](=O)[O-])c2)OCCO1
inactive: endpoint: mean survival time, dose: 100.0 mg/kg/injection, schedule: Q01DX001 (ip), vehicle: saline with Tween-80 94 % of control | [4] 102 % of control | [1] 102 % of control | endpoint: mean survival time, dose: 200.0 mg/kg/injection, schedule: Q01DX001 (ip), vehicle: saline with Tween-80 94 % of control | [5] 110 % of control | [2] 107 % of control | endpoint: mean survival time, dose: 400.0 mg/kg/injection, schedule: Q01DX001 (ip), vehicle: saline with Tween-80 94 % of control | [6] 103 % of control | [3] 102 % of control

COC1C(O)C(C)OC(O[C@@H]2C[C@H]3CC[C@@H]4[C@H](CC[C@]5(C)[C@@H](C6=CC(=O)OC6)CC[C@]45O)[C@@]3(C)[C@H](O)C2)C1O (stereo partly drawn)
inactive: endpoint: mean survival time, dose: 75.0 mg/kg/injection, schedule: Q01DX001 (ip), vehicle: other 90 % of control | endpoint: mean survival time, dose: 150.0 mg/kg/injection, schedule: Q01DX001 (ip), vehicle: other 91 % of control

O=C(O)/C=C/C(=O)Nc1cccc2cccnc12
inactive: [4] 93 % of control | [1] 98 % of control | [5] 102 % of control | [2] 93 % of control | [6] 100 % of control | [3] 98 % of control

Cc1c([N+](=O)[O-])cc(Cl)n[n+]1[O-]
inactive: endpoint: mean survival time, dose: 3.13 mg/kg/injection, schedule: Q04DX002 (ip), vehicle: saline with Tween-80 101 % of control | endpoint: mean survival time, dose: 6.25 mg/kg/injection, schedule: Q04DX002 (ip), vehicle: saline with Tween-80 97 % of control | endpoint: mean survival time, dose: 12.5 mg/kg/injection, schedule: Q04DX002 (ip), vehicle: saline with Tween-80 96 % of control
